Blank lines part the entries; values can stand above or below the compound they belong to.
Tests used:
[1] = system: prostacyclin (PGI2) release; settings: cited from earlier work; for release of prostacyclin: animal models
[2] = system: gastric mucosa; assay: ASA- and WRS-induced gastric lesions in non-diabetic and streptozocin-diabetic rats; assay type: in vivo; settings: for rise of gastric blood flow (GBF): H2-gas clearance
Protocol: In this study, streptozocin (70 mg/kg injected intraperitoneally) was used to induce diabetes mellitus and non-diabetic and diabetic rats were pretreated 30 min prior to exposure to aspirin (ASA; 150 mg/kg in 0.1 N HCl i.g.) or 3.5 h of water immersion and restraint stress (WRS) with 1) vehicle (saline) or 2) MNA (2.5-50 mg/kg i.g.). The area and number of gastric lesions was determined by planimetry, gastric blood flow (GBF) was examined by H2-gas clearance technique, and mieloperoxidase (MPO) activity, activity of superoxide dismutase (SOD) and the malonyldialdehyde (MDA) concentration as an index of lipid peroxidation were determined in gastric mucosa using ELISA. The gene expression IL-1β and TNF-α in the gastric mucosa and their plasma levels were evaluated by RT-PCR and ELISA, respectively. […] This experiment is also described in an abstract published for Digestive Disease Week 2006 (May 20-25, 2006, Los Angeles, Calif.; http://www.medscape.com/viewprogram/5452).

[3] = ASA 150 mg/kg in 0.1 N HCl i.g.

Compound: 1-methyl-3-acetylpyridinium salt
- release of prostacyclin [1]: ability to induce the release of prostacyclin

Compound: C[n+]1cccc(C(=O)NCO)c1 [1-methyl-N′-(hydroxymethyl)nicotinamide]
- release of prostacyclin [1]: ability to induce the release of prostacyclin

Compound: C[n+]1cccc(C(N)=O)c1 [1-methylnicotinamide chloride]
- release of prostacyclin [1]: ability to induce the release of prostacyclin

- gastric lesions [2, 3]: typical gastric lesions
- reduction of GBF from basal [2, 3]: 35%
- increase of MPO activity ([2]; ASA 150 mg/kg in 0.1 N HCl i.g., gastric mucosa): 2-3 fold
- mucosal SOD activity ([2]; ASA-exposed animals without or with diabetes): significantly decreased
- MDA activity (lipid peroxidation) ([2]; ASA-exposed animals without or with diabetes, gastric mucosa): significantly increased
- plasma levels of TNF-α and IL-1 ([2]; ASA-exposed, ELISA): marked increase
- mRNAs for TNF-α and IL-1 ([2]; ASA-exposed, gastric mucosa, RT-PCR): overexpression
Compound: CC(=O)Oc1ccccc1C(=O)O [ASA, aspirin]

Compound: CNC(=O)c1cccnc1 [MNA, N-methylnicotinamide]
- secretion of PGI2 ([1]; thrombolytic assay): stimulate the secretion of PGI2
- decrease of mucosal SOD activity and increase of MDA ([2]; ASA- and WRS-exposed animals without or with diabetes): markedly attenuated
- WRS-induced gastric erosions ([2]; MNA 2.5-50 mg/kg i.g. 30 min before 3.5 h WRS, diabetic and non-diabetic rats): dose-dependently attenuated
- ASA-induced gastric erosions ([2]; MNA 2.5-50 mg/kg i.g. 30 min before ASA 150 mg/kg i.g., diabetic and non-diabetic rats): dose-dependently attenuated
- IL-1β and TNF-α ([2]; gastric mucosa expression (RT-PCR) and plasma levels (ELISA)): downregulation
- rise of gastric blood flow (GBF) ([2]; injured gastric mucosa): ~33%
- rise of gastric blood flow (GBF) ([2]; intact gastric mucosa): about 22%
